# Reference: US8895555B2, “Methods of treating intestinal diseases and inflammatory conditions related to HIV-AIDS” (Bach Pharma, Inc., priority 2009, dated 2014)
# Like-named read-outs stand apart in the source and are kept apart here.
# Columns and labels:
# [1] = system: H9 cells (HIV-infected or uninfected)
# [2] = system: ts1 virus, a mutant of MoMuLV; conditions: mouse, in vivo
# Text: GVT® (sodium a-luminol) was provided by Bach-Pharma, Inc., North Andover, Mass. Goat anti-MoMuLV gp70 was from Microbiology Associates, Burlingame, Calif. (this antibody recognizes epitopes shared by the mature gp70 viral envelope protein and the precursor preprotein gPr80^env). Anti-mouse Ki67 was from Vector Laboratories, Burlingame, Calif. Polyclonal and monoclonal anti-mouse TSHI3 were from Cell Signaling (Boston, Mass.) and Dr. John R. Klein's laboratory, respectively. Mand rabbit anti-activated caspase-3 was from Cell Signaling. Mouse monoclonal anti Nrf2 was from R&D systems (Minneapolis, Minn.). FITC and Texas Red-conjugated anti-mouse, rat, rabbit and goat antibodies were from Jackson ImmunoResearch (West Grove, Pa.).
# FVB/N mice were obtained from Taconic Farms (Germantown, N.Y.). Breeding FVB/N pairs were housed in sterilized microisolator cages and supplied with autoclaved feed and water ad libitum. The microisolators were kept in an environmentally controlled isolation room. For ts1 infection, four-day-old mice were inoculated intraperitoneally with 0.1 ml of vehicle (mock infection) or with 0.1 ml of a ts1 suspension containing 2×107 infectious units/ml.
# For GVT treatment, animals from the control and ts1-infected groups are divided into two groups each […]. The infected mice are then divided again into two groups, one of whose individuals received 0.9% normal saline, intraperitoneally, five continuous days a week, followed by two resting days, until the end of the experiment. At the same time, mice from the other half of the infected animals received freshly prepared GVT, delivered intraperitoneally at 200 mg/kg body weight/day in 0.9% normal saline. The uninfected mice were also divided into two groups, one receiving saline alone, and the other receiving GVT as described above.
# At 30 dpi, mice from all groups were sacrificed, and their small intestines (2 cm from the jejunum) processed for Western blotting of the tissues or for frozen section immunohistochemistry. All mice were observed daily for clinical signs of disease, and individuals from all groups were sacrificed at 30 dpi. Intestinal tissues to be used for Western blotting are removed, snap-frozen in liquid nitrogen and stored at −80° C. until use. For immunohistochemistry, intestine segments were snap-frozen in liquid nitrogen in OCT embedding compound. These animal protocols were approved by The University of Texas M.D. Anderson Cancer Center Institutional Animal Care and Use Committee.
# Western blotting analysis was performed as described previously. Briefly, whole cell protein was extracted from whole intestines in radioimmunoprecipitation assay buffer (NP40, 0.5% sodium deoxycholate, 0.1% sodium dodecyl sulfate, 0.25 mM phenylmethylsulfonylfluoride, 1 mg/ml aprotinin, leupeptin, and pepstatin A, 1 mM sodium orthovanadate, and 1 mM sodium fluoride in phosphate-buffered saline, or PBS). Protein concentrations were measured using the Bio-Rad Dc protein assay reagent (Bio Rad Laboratories, Hercules, Calif.) as per the manufacturer's instructions. These lysates ([…] total protein per sample) were electrophoresed on 10% SDS-PAGE gels, and then transferred to polyvinylidene difluoride membranes (Millipore Corp, Bedford, Mass.). The membranes were blocked at room temperature for 1 hr in iris-buffered saline, or TBS, with 5% nonfat milk, and incubated with unconjugated primary antibody for 2 hrs, followed by 3 washes with TBS. The blots were then incubated with species-appropriate horseradish peroxidase-conjugated secondary antibody for an additional 1 hr. After three washes, immune complexes were detected by chemiluminescence (NEN Life Science Products, Boston, Mass.). A monoclonal anti-13-actin antibody (Sigma, St. Louis, Mo.) was used as a loading control. Values calculated as the ratio of their normalized values against this number.
# [3] = system: ts1 virus; conditions: for disease course: T cell loss, thymic atrophy, wasting, death: ts1-infected mice treated with GVT
# Text: GVT® (monosodium luminol) was provided by Bach-Pharma, Inc., North Andover, Mass. Goat anti-MoMuLV gp70 was from Microbiology Associates, Burlingame, Calif. This antibody recognizes epitopes shared by the mature gp70 viral envelope protein and the precursor preprotein gPr80^env Monoclonal rabbit anti-cleaved caspase-3 was from Cell Signaling (Boston, Mass.). Mouse monoclonal anti-Nrf2 was from R&D systems (Minneapolis, Minn.). Polyclonal anticytokeratin-5 (CK5) and monoclonal anti-cytokeratin-8 (CK8) antibodies were from Covance Research (Richmond, Calif.) and the National Institutes of Health Developmental Studies Hybridoma Bank (Iowa City, Iowa), respectively. F1TC and Texas Red conjugated anti-mouse, rat, rabbit and goat antibodies were from Jackson ImmunoResearch (West Grove, Pa.).
# 5 (and 6)-chloromethyl-2′,7′-dichlorodihydrofluorescein diacetate (CM-H2DCFDA; Molecular Probes, Eugene, Oreg.; hereafter called DCFDA), is a cell-permeant indicator for intracellular ROS, including hydrogen peroxide and superoxide. The dye itself is non-fluorescent, but when its acetate groups are removed by intracellular esterases, it is oxidized to form a highly fluorescent derivative, carboxydichlorofluorescein. Freshly isolated thymocytes were prepared from uninfected, GVT-only, ts1-only and ts1-GVT-treated mice, at 30 dpi. The thymocytes were incubated with […] of DCFDA, in culture medium (RPMI 1640) at 37° C. for 30 mm. After this loading period, the cells were washed twice with PBS, lysed, and the fluorescence of their contents measured using a Synergy HT multi-detection microplate reader (BioTek Instruments, Inc., Winoski, Vt.). The data are expressed as means±standard deviation (SD) of relative fluorescence units (against a standard curve) for DCFDA-loaded thymocyte lysates for three mice of each treatment group (See FIG. 16).
# FVB/N mice were obtained from Taconic Farms (Germantown, N.Y.). Breeding FVB/N pairs were housed in sterilized microisolator cages and supplied with autoclaved feed and water ad libitum. The microisolators were kept in an environmentally controlled isolation room. For ts1 infection, 4-day-old mice were inoculated intraperitoneally with 0.1 ml of vehicle (mock infection) or with 0.1 ml of a ts1 suspension containing 2×107 infectious units/ml. […] For GVT treatment, animals from the control and ts1 infected groups were divided into two groups each on the day of infection. Infected mice were then divided again into two groups, one of whose individuals received 0.9% normal saline, intraperitoneally, for five continuous days-a-week, followed by two resting days, until the end of the experiment, while the other half of the infected animals received freshly prepared GVT, delivered intraperitoneally at 200 mg/kg body weight/day in 0.9% normal saline. The uninfected mice were also divided into two groups, one receiving saline alone, and the other receiving GVT as described above. […] All mice were observed daily for clinical signs of disease, and the mice from all groups were sacrificed at 30 dpi.
# Whole thymi that were to be used for Western blotting were removed, snap frozen in liquid nitrogen and stored at −80° C. until use. For immunohistochemistry, thymi were snap-frozen in liquid nitrogen in Optimal Cutting Temperature (OCT) embedding compound (Sakura Finetek USA, Torrance, Calif.). These experimental protocols were approved by The University of Texas M.D. Anderson Cancer Center's Institutional Animal Care and Use Committee. […]
# [4] = system: acute intestine infections of different nature
# Method: Clinical tests were performed on 56 patients suffering from acute intestine infections of different nature, accompanied by intoxication syndrome and diarrhea. All 56 patients had similar clinical manifestations, form and seriousness of the disease. The drug was prescribed to be used according to the following protocol: initial dose, 200 mg intramuscularly; then 3 hours later, a dose of 100 mg; and 3 hours later, a dose of 100 mg (400 mg per day).
# In anamnesis of all patients no data of non-endurance or allergic reactions to any remedies was stated. GVT was administered to 54 patients within first hours after admission, before the application of traditional treatment methods, i.e., water-crystalloid solutions, vitamins, spasmolytics, as by acute dysentery and salmonellosis—antibacterial therapy.
# [5] = system: MT-4 cells (HIV-infected or uninfected)
# Method: HIV-1 infection of cultured T lymphoblastoid cells (MT4) causes a dramatic increase in intracellular ROS, and this is associated with cell death.
# GVT was added to the cell culture every day for all six days of culture. HIV causes apoptosis of MT-4 cells, measurable when the cells are harvested at 6 dpi.
# [6] = GVT intramuscularly, 400 mg per day
smiles,measurement,setting,value
"Nc1cccc2c(=O)[n-][nH]c(=O)c12.[Na+] [GVT, monosodium luminol]",ROS in uninfected H9 cells,[1],does not dramatically reduce ROS
same,CD4-positive cells in the LP of intestinal villi,[2],present in the LP of villi
same,Ki67 staining pattern (cell cycling) of intestinal epithelium,[2],limited to the crypts
same,Nrf2 in intestinal epithelial cells (immunostaining),[2],heavy loading with Nrf2
same,Nrf2 levels in intestinal tissues (Western blot),[2],significantly upregulated
same,TSH expression pattern along crypt-villus axis (immunostaining),[2],limited to the crypts
same,TSH level in intestinal lysates (Western blot),[2],what appear to be normal TSH levels
same,cleaved caspase-3 in intestines (Western blot),[2],absent
same,gPr80env accumulation in intestinal lysate (anti-gp70 Western blot),[2],only gp70 was present
same,crypt-villus organization of small intestine (H&E and gp70 staining),"[2]; ip, 200 mg/kg/day",apparently normal crypt-villus organization
same,Nrf2-positive cells in thymic sections (gp70/Nrf2 double staining),"[3]; ts1-GVT mice, 30 dpi",large numbers of red cellular profiles (Nrf2-positive only)
same,thymic corticomedullary organization (H&E),"[3]; ts1-GVT mice, 30 dpi",normal corticomedullary organization
same,thymus weight,"[3]; ts1-GVT mice, 30 dpi",no thymic weight loss
same,"disease course: T cell loss, thymic atrophy, wasting, death",[3],delayed T cell loss and thymic atrophy for many weeks
same,"disease course: T cell loss, thymic atrophy, wasting, death",[3]; listed as monosodium luminol,"significantly delays thymic atrophy, wasting, and death"
same,patients with body temperature normalized on the 1st or 2nd day of treatment,[4]; 53 patients of 56,94.6%
same,general weakness,[4]; [6],disappeared on the 3rd day
same,time to positive effect,[4]; [6],≤ 24 h
same,intoxication,"[4]; GVT intramuscularly, 400 mg per day, majority of patients",decrease in intoxication on the 1st and 2nd days
same,viability of uninfected MT-4 cells,[5]; GVT added every day for 6 days of culture,increases the viability of uninfected cells
same,apoptosis of HIV-infected MT-4 cells,"[5]; GVT added every day for 6 days, harvested at 6 dpi",significantly reduces apoptosis
same,survival of HIV-infected MT4 cells,"[5]; HIV-1 infected, GVT-treated",the infected cells survive
same,Nrf2 levels in MT-4 cells,"[5]; days 1-6 dpi, infected or not",an increase
same,viability of uninfected MT-4 cells,[5]; single dose on day 1,no effect on their viability
same,effect on uninfected MT-4 cells (proliferation),"[5]; uninfected, FIG. 9",mitogenic
